ChEMBL document CHEMBL1147027, “The role of fluorine substitution in the structure-activity relationships (SAR) of classical cannabinoids” (2007)

Tests used:
[1] = target: Cannabinoid receptor 1 (Homo sapiens) (UniProt P21554); test: Binding affinity to CB1 receptor
Mus musculus [2] = organism: Mus musculus; test: Effect on behavioral activity in mouse assessed as spontaneous activity by tetrad test; assay type: functional
Mus musculus [3] = organism: Mus musculus; test: Effect on behavioral activity in mouse assessed as rectal temperature by tetrad test; assay type: functional
Mus musculus [4] = organism: Mus musculus; test: Effect on behavioral activity in mouse assessed as tail flick by tetrad test; assay type: functional
[5] = target: Cannabinoid receptor 2 (Homo sapiens) (UniProt P34972); test: Binding affinity to CB2 receptor
Mus musculus [6] = test: Effect on behavioral activity in intrathecally dosed mouse assessed as tail flick by tetrad test at 100 mg/kg; assay type: functional
Mus musculus [7] = test: Effect on behavioral activity in intrathecally dosed mouse assessed as tail flick by tetrad test; assay type: functional
Mus musculus [8] = test: Effect on behavioral activity in mouse assessed as rectal temperature by tetrad test at 30 mg/kg; assay type: functional
Mus musculus [9] = test: Effect on behavioral activity in mouse assessed as tail flick by tetrad test at 30 mg/kg; assay type: functional
Mus musculus [10] = test: Effect on behavioral activity in mouse assessed as spontaneous activity by tetrad test at 30 mg/kg; assay type: functional

Cannabinoid receptor 1 (Homo sapiens), sequence (P21554 whole entry): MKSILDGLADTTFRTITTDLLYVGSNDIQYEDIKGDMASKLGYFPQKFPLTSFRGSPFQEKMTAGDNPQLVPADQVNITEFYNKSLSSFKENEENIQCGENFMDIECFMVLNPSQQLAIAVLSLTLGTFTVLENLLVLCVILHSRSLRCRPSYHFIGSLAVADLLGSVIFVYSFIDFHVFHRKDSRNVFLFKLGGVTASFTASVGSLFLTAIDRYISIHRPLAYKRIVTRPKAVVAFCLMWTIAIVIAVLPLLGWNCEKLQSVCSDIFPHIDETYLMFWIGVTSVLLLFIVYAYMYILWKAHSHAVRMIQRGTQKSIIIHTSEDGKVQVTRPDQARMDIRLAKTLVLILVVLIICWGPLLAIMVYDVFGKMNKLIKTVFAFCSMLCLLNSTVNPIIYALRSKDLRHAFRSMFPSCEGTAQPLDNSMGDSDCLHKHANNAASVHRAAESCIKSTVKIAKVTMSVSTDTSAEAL
Cannabinoid receptor 2 (Homo sapiens), sequence (P34972 whole entry): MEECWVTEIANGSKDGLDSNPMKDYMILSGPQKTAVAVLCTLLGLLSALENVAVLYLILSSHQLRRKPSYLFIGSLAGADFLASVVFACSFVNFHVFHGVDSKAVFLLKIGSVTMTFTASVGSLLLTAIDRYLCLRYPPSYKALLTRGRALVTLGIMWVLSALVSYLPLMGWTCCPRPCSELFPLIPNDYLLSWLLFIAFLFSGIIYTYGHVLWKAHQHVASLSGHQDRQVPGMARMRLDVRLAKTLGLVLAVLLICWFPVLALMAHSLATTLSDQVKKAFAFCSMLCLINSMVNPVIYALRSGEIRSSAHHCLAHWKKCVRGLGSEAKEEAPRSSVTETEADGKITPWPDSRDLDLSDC

SMILES | Activity [1] | ED50 (Mus musculus [2]) | ED50 (Mus musculus [3]) | ED50 (Mus musculus [4]) | Activity [5] | Activity (Mus musculus [6]) | Activity (Mus musculus [7]) | Activity (Mus musculus [8]) | Activity (Mus musculus [9]) | Activity (Mus musculus [10])
CCCCCCCc1cc(F)c2c(c1)OC(C)(C)[C@@H]1CC=C(C)C[C@@H]21 | 1560 nM | 31.1 mg/kg | 6.9 mg/kg | 21.5 mg/kg | 1510 nM | 36% |  |  |  | 
CCCCC/C=C/c1cc(O)c2c(c1)OC(C)(C)[C@@H]1CC=C(C)C[C@@H]21 | 0.86 nM | 0.09 mg/kg | 0.13 mg/kg | 0.09 mg/kg |  |  |  |  |  | 
CCCCC/C=C/c1cc(F)c2c(c1)OC(C)(C)[C@@H]1CC=C(C)C[C@@H]21 | 285 nM |  |  |  | 40 nM |  |  |  |  | 
CCCCCc1cc(O)c2c(c1)OC(C)(C)[C@@H]1CCC(C)=C[C@@H]21 [DRONABINOL] |  | 1 mg/kg | 1.4 mg/kg | 1.4 mg/kg |  |  | 29 µg |  |  | 
CCCCCC#Cc1cc(F)c2c(c1)OC(C)(C)[C@@H]1CC=C(C)C[C@@H]21 | > 10000 nM |  |  |  | > 4550 nM |  | 156.9 µg | -2.2 °C | 4% | 8%
CCCCCC#Cc1cc(O)c2c(c1)OC(C)(C)[C@@H]1CC=C(C)C[C@@H]21 | 36 nM | 3.68 mg/kg | 2.96 mg/kg | 3.24 mg/kg |  |  |  |  |  | 
